How the values were obtained:
[1] = tested on: zebrafish neuromast hair cells; test: Zebrafish cisplatin ototoxicity, neuromast hair cell count; format: in vivo
[2] = tested on: EGFR downstream signaling pathways (AKT and MAPK); test: Western blotting of EGFR downstream kinases in organ of Corti after transtympanic injection; format: in vivo, mouse; conditions: middle ear trans tympanic injection, 20 mg/ml; P28 FVB mice
Protocol: […]. […] Quarter 2 in the flow plot presents cells that are positive for EGFR. (B) P28 FVB mice were injected transtympanically with DMSO or 20 mg/ml of AG1478. Western blotting was performed on pooled organs of Corti to detect the phosphorylation of EGFR downstream kinases. (C) Zebrafish not injected or injected with 2 ng of scrambled or EGF ligand (EGFL) specific morpholinos (Gene Tools). […]. Quantification of the HCs was performed in SO3, O1 and O2 neuromasts. P<0.0001 versus the corresponding control (One-way ANOVA). […] (D) PCR from scrambled and EGFL morphants.
Now referring to FIGS. 2A-D, to determine whether functional EGFR is expressed in the adult cochlea, flow cytometry was used to identify epithelial cells that express EGFR protein in the adult cochlea (FIG. 2A). In P28 FVB mice, excluding dead cells and those with autofluorescence, we detected 1140±88 EGFR+; EpCAM+ (an epithelial cell marker) cells from one cochlea (Mean±SEM, n=4).

adult FVB mice = test: Mouse model of acute noise-induced hearing loss (ABR, DPOAE, synaptic ribbon counts); conditions: no noise trauma; vs saline + noise and Afatinib + noise groups
Text: Subcutaneous needle electrodes were inserted behind the pinna (inverting), vertex of the skull (non-inverting) and base of the tail (ground). Tone bursts of 5 ms duration with 0.5 ms cosine-squared envelopes delivered at a rate of 21 stimuli per second with alternating polarity were generated using BioSigRZ software and RZ6 multi I/O processor system (Tucker-Davis Technologies, FL). Stimuli were presented as open field via a speaker (MF1; TDT, FL) placed 10 cm in front of the pinna of the animal. […] Stimulus intensity was decreased in 5 dB increments, starting from 100 db SPL to 0 dB SPL. […] Before the start of every session, stimulus presenting speaker (MF1) was calibrated with a ¼″ microphone (PCB-378C10; PCB Piezotronics, NY) that was also placed 10 cm in front of the speaker.
Another group of mice were administered saline. […] ABR and DPOAE thresholds were recorded prior, 7 days, or 14 days post noise exposure.
These groups of mice were additionally tested for DPOAE threshold.

Compound: O=C(CCCCCCC(=O)Nc1ccccc1)NO [Vorinostat]
- protection against CIHL ([1]; doses of 0.002, 0.0183 and 0.165 μM, 1 hour pre-incubation, then 400 µM cisplatin for 4 hours): showed protection against CIHL
- Cisplatin damage in HCs at SO3 and O1-2 neuromasts ([1]; pretreated with various doses): significantly reduced Cisplatin damage

Compound: COc1cc2ncnc(Nc3cccc(Cl)c3)c2cc1OC [AG1478]
- EGFR downstream signaling (AKT and MAPK) in the organ of Corti [2]: significantly suppressed

Compound: CN(C)C/C=C/C(=O)Nc1cc2c(Nc3ccc(F)c(Cl)c3)ncnc2cc1O[C@H]1CCOC1 [Afatinib]
- DPOAE threshold, Afatinib without noise trauma (adult FVB mice): reduced DPOAE threshold at all f2 frequencies
